From publication PMC4714855, “Prediction of T Cell Epitopes from Leishmania major Potentially Excreted/Secreted Proteins Inducing Granzyme B Production” (PLoS ONE, 2016)

Experiments:
[1] = biological target: T1, HLA-A*0201 molecules on T2 cells (Homo sapiens, UniProt P04439, D140Y/D185E/D98H/E176V/E277Q/G131W/G231S/I119V/I121R/I166T/I218V/L300P/L318F/N151K/N90K/P208A/P217A/Q86G/Q94H/R138H/R169H/T345S); experiment: class I HLA stabilization assay on T2 cells (flow cytometry, anti-HLA-A2 antibody); format: cell-based; conditions: for relative fluorescence intensity (RFI), percentage increase of mean fluorescence above negative controls: T2 cells, β2-microglobulin 10μg/mL, peptide 10μg/mL (Fig 1 legend: 100μg/mL), 16h 37°C, then Brefeldin A 2h; for affinity for HLA-A2 molecule (stabilization on T2 cells), class in words: T2 cell stabilization assay
T1 construct: endogenous in cells; host or cells: T2 cells
Method: The affinity of peptides for HLA-A*0201 molecules was evaluated by using the stabilization assay as previously described. Briefly, T2 cells were incubated with human β2-microglobulin at a final concentration of 10μg/mL in the presence or not of peptides at 10μg/mL for 16h at 37°C in 5% CO2. Cells were then incubated with 5μg/mL Brefeldin A (Sigma-Aldrich, St. Louis, MO) for 2h at 37°C. Expression of HLA-A*0201 on T2 cells was then determined by staining with fluorescein isothiocyanate-labelled anti-HLA-A2 antibody (BD Biosciences, San Jose, CA) and analyzed by flow cytometry using FACScan (BD Biosciences, San Jose, CA). Results were expressed in relative fluorescence intensity (RFI) calculated as the percentage increase of the mean fluorescence above that of the negative controls.
The sequence of 33 different clones of potentially ES proteins has been used. Based on computer software predictions, putative class I HLA-restricted T cell epitopes were identified. Twenty proteins were able to generate a total of 78 nonameric peptides that could be loaded by HLA-A*0201 molecule (Table 2). Subsequently, we have evaluated the binding affinity of these peptides to HLA-A*0201 molecules by class I HLA stabilization assay. This assay measures the increase of HLA-A*0201 molecules induced on T2 cells following exposure to exogenous HLA-A*0201 binding peptides, with high affinity peptides inducing HLA-A*0201 up-regulation more strongly than low-affinity peptides. Individual results are shown on Fig 1A. The 78 tested peptides were classified into 3 groups regarding the percentage of RFI.
Fig 1 Binding affinity of LmES peptides to HLA-A*0201 molecules. The affinities of selected peptides were determined by class I HLA stabilization assay. (A) Results for individual peptides. T2 cells were initially incubated with 100μg (final concentration) of each of the peptides/mL for 16h at 37°C, followed by incubation at 37°C for 2h in presence of Brefeldine A. HLA-A2 expression on these cells was analyzed by flow cytometry using the BB7.2 antibody. MHC stabilization efficiency for each peptide was calculated as the percentage increase of the mean fluorescence above that of the negative controls. Results were expressed as relative fluorescence intensity (RFI). (B) Box plot results. ++: RFI ranges from 200 to 300%, +: RFI ranges from 100 to 200%, and -: RFI ranges from 0 to 100%.

PBMCs = experiment: Granzyme B production by stimulated PBMCs (ELISA of culture supernatants); format: cell-based, human; conditions: PBMCs of 3 HLA-A*0201+ and 3 HLA-A*0201- immune (healed ZCL) donors, peptide 20μg/mL, 5 days; 24 peptides tested
Method: To assess whether the selected peptides could stimulate or not CD8^+ T cells, we have analysed the induction of GrB and IFN-γ by stimulated PBMCs from healed ZCL individuals. PBMCs separated from heparinized blood samples using Ficoll-Hypaque (Sigma-Aldrich, St. Louis, MO) density gradient centrifugation were resuspended in RPMI 1640 medium (Sigma-Aldrich, St. Louis, MO) supplemented with 2mM L-Glutamine (Sigma-Aldrich, St. Louis, MO), 1mM sodium pyruvate (Gibco, Invitrogen, Grand Island, NY), 100U/mL Penicillin (Sigma-Aldrich, St. Louis, MO), 100μg/mL Streptomycin (Sigma-Aldrich, St. Louis, MO), 10mM HEPES (Gibco, Invitrogen, Grand Island, NY), 20μg/mL Gentamicin (Gibco, Invitrogen, Grand Island, NY), 1X non-essential amino acids (Gibco, Invitrogen, Grand Island, NY), 2-mercaptoethanol (Gibco, Invitrogen, Grand Island, NY), and 10% (v/v) heat-inactivated human AB serum (Sigma-Aldrich, St. Louis, MO), [complete medium] at a concentration of 1.0x10^6 cells/mL. Peptide pools were prepared instantly by dilution with phosphate buffered saline and then added to the cell culture at a final concentration of 1μg/mL. In some experiments, peptides were added separately to the culture at a concentration of 20μg/mL. As positive control, PBMCs were stimulated with 10ng/mL of phorbol 12-myristate 13-acetate (PMA) (Sigma-Aldrich, St. Louis, MO) and 50ng/mL Ionomycin (Sigma-Aldrich, St. Louis, MO). All cultures were incubated at 37°C in 5% CO2 for 5 days. Culture supernatants were then harvested and frozen at -80°C until use.
Granzyme B (GrB), IFN-γ, and IL-10 levels in culture supernatants were quantified with an enzyme-linked immunosorbent (ELISA) assay (MABTECH AB, Nacka Strand, Sweden) for the first one and OptEIA set ELISA assay kit (BD Biosciences, San Jose, CA) for the others. The results were expressed as pg/mL based on the standards provided by the kits. Quantification thresholds were fixed to 100pg/mL for GrB, 45pg/mL for IFN-γ, and 20pg/mL for IL-10.
Fig 2 Peptides grouped in pools induced GrB production. (A) PBMCs from 5 HLA-A*0201^+-donors with a history of ZCL in response to stimulation with peptide pools at a final concentration of 1μg/mL per peptide or (B) SLA (10μg/mL) and PMA/Ionomycin (10ng/mL and 50ng/mL, respectively) as positive controls. GrB production was assessed in culture supernatants using ELISA. (C) Rank of the peptide pools. +: mean pool rank, -: median.
Fig 3 GrB induction by the selected peptides. (A) PBMCs from HLA-A*0201^+ (black mark) and HLA-A*0201^- (white mark) -healed ZCL individuals were stimulated with selected peptides separately. The supernatant was collected after 5 days of incubation and assayed for GrB production.

Sequence: ELLGNLEEV [D6, nonamer … from L. major ES protein Pr 31]
- relative fluorescence intensity (RFI), percentage increase of mean fluorescence above negative controls [1]: > 200%

Sequence: FMEVFGMLV [G2, nonamer … from L. major ES protein Pr 78]
- affinity for HLA-A2 molecule (stabilization on T2 cells), class in words [1]: high
- relative fluorescence intensity (RFI), percentage increase of mean fluorescence above negative controls [1]: > 200%
- GrB induction by individual peptides (PBMCs): highest levels of GrB

Sequence: MLLWTAVAV [E1, nonamer … from L. major ES protein Pr 37]
- relative fluorescence intensity (RFI), percentage increase of mean fluorescence above negative controls [1]: > 200%

Sequence: MLVQSCTSI [G3, nonamer … from L. major ES protein Pr 78]
- affinity for HLA-A2 molecule (stabilization on T2 cells), class in words [1]: high
- relative fluorescence intensity (RFI), percentage increase of mean fluorescence above negative controls [1]: > 200%
- GrB induction by individual peptides (PBMCs): highest levels of GrB

Sequence: PLSPATRRL [E6, nonamer … from L. major ES protein Pr 38]
- GrB induction by individual peptides (PBMCs): highest levels of GrB

Sequence: SLQFSAFLL [G1, nonamer … from L. major ES protein Pr 78]
- relative fluorescence intensity (RFI), percentage increase of mean fluorescence above negative controls [1]: > 200%

Sequence: TLGVKQMVV [F6, nonamer … from L. major ES protein Pr 74 (elongation factor 1-alpha)]
- affinity for HLA-A2 molecule (stabilization on T2 cells), class in words [1]: high
- relative fluorescence intensity (RFI), percentage increase of mean fluorescence above negative controls [1]: > 200%
- GrB induction by individual peptides (PBMCs): highest levels of GrB

Sequence: VVSVLTHSV [G4, nonamer … from L. major ES protein Pr 78]
- affinity for HLA-A2 molecule (stabilization on T2 cells), class in words [1]: intermediate
- GrB induction by individual peptides (PBMCs): highest levels of GrB

Sequence: YLRTFPAAL [E2, nonamer … from L. major ES protein Pr 37]
- affinity for HLA-A2 molecule (stabilization on T2 cells), class in words [1]: intermediate
- GrB induction by individual peptides (PBMCs): highest levels of GrB
